Patent US20080249072A1, “Use of Low Dose Chemically Modified Tetracylines to Reduce Inflammatory Mediators” (priority 2005, published 2008)

Key:
Type in all cases: cell-based
Interleukin-6 (IL-6) = test: IL-6 production by human monocytes/macrophages stimulated by CRP/Oxid. LDL complex (ELISA)
Description: (§1) Experiments were conducted to compare the efficacy of two tetracycline compounds, doxycycline and CMT-3, on reducing the production of inflammatory mediators, TNF-α, IL-6 and MCP-1 produced by monocytes/macrophages. Doxycycline is a well known tetracycline antibiotic. CMT-3 is a non-antibacterial 4-dedimethylamino derivative of sancycline. See above. The experiments utilized a cell culture stimulated by biologic factors that cause inflammation, such as the inflammation seen in, for example, coronary and cerebro-vascular disease. Units of human blood were obtained and peripheral blood monocytes were separated by Ficoll-Hypaque gradient centrifugation. Viable human monocytes/macrophages were incubated in cell culture under standard sterile conditions on plastic in RPMI media at 37° C. for 18 hours. The monocytes/macrophages were incubated under the following experimental conditions: • (i) cells alone; • (ii) cells stimulated by c-reactive protein (CRP)/Oxidized LDL cholesterol complex (CRP/Oxid. LDL complex), no tetracycline present; • (iii) cells stimulated by CRP/Oxid. LDL complex with doxycycline at concentrations of 0.7 μg/ml, 5.0 μg/ml and 10.0 μg/ml; and. • (iv) cells stimulated by CRP/Oxid. LDL complex with CMT-3 at concentrations of 0.5 μg/ml, 1.5 μg/ml and 5.0 μg/ml. CRP/Oxid. LDL complex stimulates monocytes/macrophages to secrete excessive levels of cytokines (e.g. IL-1, IL-6, TNF-α, and MCP-1). Excessive levels of cytokines result in the rupture of atheroscleromatus plaques lining coronary and cerebral arteries causing thrombosis, heart attack and stroke. At the end of an 18 hour incubation, the conditioned media were collected and analyzed by ELISA for inflammatory mediators IL-6, TNF-α and MCP-1. The results are described in examples 1-3.

[1] = system: Tumor Necrosis Factor-α (TNF-α); test: TNF-α production by human monocytes/macrophages stimulated by CRP/Oxid. LDL complex (ELISA)
Description: as §1

[2] = system: Macrophage Chemotactic Protein-1 (MCP-1); test: MCP-1 production by human monocytes/macrophages stimulated by CRP/Oxid. LDL complex (ELISA)
Description: as §1

[3] = all three concentrations tested (0.5, 1.5 and 5.0 μg/ml)
[4] = highest concentration, 5.0 μg/ml

SMILES	IL-6 production at 1.5 μg/ml higher than at 0.5 μg/ml (Interleukin-6 (IL-6); 1.5 μg/ml versus 0.5 μg/ml) [%]	effect on IL-6 production (Interleukin-6 (IL-6); [3])	effectiveness in reducing IL-6 among concentrations tested (Interleukin-6 (IL-6); [4])	TNF-α production at 1.5 μg/ml higher than at 0.5 μg/ml ([1]; 1.5 μg/ml versus 0.5 μg/ml)	effect on TNF-α production [1, 3]	effectiveness in reducing TNF-α among concentrations tested [1, 4]	MCP-1 production at 1.5 μg/ml higher than at 0.5 μg/ml ([2]; 1.5 μg/ml versus 0.5 μg/ml) [%]	effectiveness in reducing MCP-1 among concentrations tested [2, 4]	reduction of TNF-α production ([1]; 10.0 μg/ml, 18 hour incubation)	inhibition at 0.7 µg/mL ([1]; Homo sapiens, 0.7 μg/ml, 18 hour incubation) [%]	inhibition at 5 µg/mL ([1]; Homo sapiens, 5.0 μg/ml, 18 hour incubation) [%]	inhibition of MCP-1 production ([2]; 0.5 μg/ml)	inhibition of MCP-1 production ([2]; 1.5 μg/ml)	inhibition at 5 µg/mL ([2]; Homo sapiens, Macrophage, 5.0 μg/ml, read-out: inhibition of production (printed TNF-α, in MCP-1 example)) [%]
NC(=O)C1=C(O)C[C@@H]2C[C@@H]3Cc4cccc(O)c4C(=O)C3=C(O)[C@]2(O)C1=O [CMT-3, 6-demethyl-6-deoxy-4-dedimethylaminotetracycline]	43	reduced IL-6 production	most effective	about 50%	reduced TNF-α production	most effective	16	most effective	–	–	–	–	–	–
C[C@H]1c2cccc(O)c2C(=O)C2=C(O)[C@]3(O)C(=O)C(C(N)=O)=C(O)[C@@H](N(C)C)[C@@H]3[C@@H](O)[C@@H]21 [doxycycline, reference compound]	–	–	–	–	–	–	–	–	about 94%	~14	~37	did not inhibit	did not inhibit	~68
